According to ChEMBL document CHEMBL1201862, “PubChem BioAssay data set” (2004):
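A five-concentration, 48-hour dose response in 96-well plates underlies each endpoint, interpolated linearly between surrounding concentrations. GI50 is the concentration that inhibits growth by half.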 Active and inactive are the calls of the source. No stated cut-off is given here; in the data, active = GI50 up to about 1.1 µM and inactive = higher.

How the values were obtained:
Experiment in all cases: NCI-60 cell line screen, 48 h
[1] = test system: 786-0
[2] = test system: A549
[3] = test system: ACHN
[4] = test system: CAKI-1
[5] = test system: COLO 205
[6] = test system: DLD-1
[7] = test system: DMS-114
[8] = test system: DMS-273
[9] = test system: EKVX
[10] = test system: HCC 2998
[11] = test system: HCT-116
[12] = test system: HCT-15
[13] = test system: HOP-18
[14] = test system: HOP-62
[15] = test system: HOP-92
[16] = test system: HT-29
[17] = test system: IGROV-1
[18] = test system: KM-20L2
[19] = test system: KM12
[20] = test system: LOX IMVI
[21] = test system: LXFL 529
[22] = test system: M14
[23] = test system: M19-MEL
[24] = test system: Malme-3M
[25] = test system: NCI-H226
[26] = test system: NCI-H23
[27] = test system: NCI-H460
[28] = test system: OVCAR-3
[29] = test system: OVCAR-4
[30] = test system: OVCAR-5
[31] = test system: OVCAR-8
[32] = test system: RPMI-8226
[33] = test system: RXF 393
[34] = test system: SF-268
[35] = test system: SF-295
[36] = test system: SF-539
[37] = test system: SK-MEL-28
[38] = test system: SK-MEL-2
[39] = test system: SK-OV-3
[40] = test system: SN12C
[41] = test system: SNB-19
[42] = test system: SNB-75
[43] = test system: SNB-78
[44] = test system: SW-620
[45] = test system: TK-10
[46] = test system: U-251
[47] = test system: UACC-257
[48] = test system: UACC-62
[49] = test system: UO-31
[50] = test system: XF498
[51] = test system: A498
[52] = test system: CCRF-CEM
[53] = test system: HL-60
[54] = test system: K562
[55] = test system: NCI-H522
[56] = test system: SK-MEL-5
[57] = test system: SR

O=C1C(=O)N(c2nccs2)C(=O)C(=O)C1c1nc2ccccc2s1
GI50 [1]: > 100 µM (inactive) | GI50 [2]: > 100 µM (inactive) | GI50 [3]: > 100 µM (inactive) | GI50 [4]: > 100 µM (inactive) | GI50 [5]: > 100 µM (inactive) | GI50 [6]: > 100 µM (inactive) | GI50 [7]: > 100 µM (inactive) | GI50 [8]: > 100 µM (inactive) | GI50 [9]: > 100 µM (inactive) | GI50 [10]: > 100 µM (inactive) | GI50 [11]: > 100 µM (inactive) | GI50 [12]: > 100 µM | GI50 [13]: 9.23 µM (inactive) | GI50 [14]: > 100 µM (inactive) | GI50 [15]: > 100 µM (inactive) | GI50 [16]: > 100 µM (inactive) | GI50 [17]: > 100 µM (inactive) | GI50 [18]: > 100 µM (inactive) | GI50 [19]: > 100 µM (inactive) | GI50 [20]: > 100 µM (inactive) | GI50 [21]: 94 µM (inactive) | GI50 [22]: > 100 µM (inactive) | GI50 [23]: > 100 µM (inactive) | GI50 [24]: > 100 µM (inactive) | GI50 [25]: > 100 µM (inactive) | GI50 [26]: > 100 µM (inactive) | GI50 [27]: > 100 µM (inactive) | GI50 [28]: > 100 µM (inactive) | GI50 [29]: > 100 µM (inactive) | GI50 [30]: > 100 µM (inactive) | GI50 [31]: > 100 µM (inactive) | GI50 [32]: > 100 µM (inactive) | GI50 [33]: > 100 µM (inactive) | GI50 [34]: > 100 µM (inactive) | GI50 [35]: > 100 µM (inactive) | GI50 [36]: > 100 µM (inactive) | GI50 [37]: > 100 µM (inactive) | GI50 [38]: > 100 µM (inactive) | GI50 [39]: > 100 µM (inactive) | GI50 [40]: > 100 µM (inactive) | GI50 [41]: > 100 µM (inactive) | GI50 [42]: > 100 µM (inactive) | GI50 [43]: > 100 µM (inactive) | GI50 [44]: > 100 µM (inactive) | GI50 [45]: > 100 µM (inactive) | GI50 [46]: 83 µM (inactive) | GI50 [47]: > 100 µM (inactive) | GI50 [48]: > 100 µM (inactive) | GI50 [49]: > 100 µM (inactive) | GI50 [50]: > 100 µM (inactive)

O=C(NCc1ccccc1)c1cc2cc(O)c(O)cc2cn1
GI50 [1]: 22.9 µM (inactive) | GI50 [51]: 73.3 µM (inactive) | GI50 [2]: 29 µM (inactive) | GI50 [3]: 12.5 µM (inactive) | GI50 [4]: 35.6 µM (inactive) | GI50 [52]: 6.4 µM (inactive) | GI50 [5]: 34.8 µM (inactive) | GI50 [6]: 36.7 µM (inactive) | GI50 [7]: 4.48 µM (inactive) | GI50 [8]: 4.7 µM (inactive) | GI50 [9]: 41.3 µM (inactive) | GI50 [10]: 32.7 µM (inactive) | GI50 [11]: 30.3 µM (inactive) | GI50 [12]: 20 µM | GI50 [53]: 13.5 µM (inactive) | GI50 [13]: 13.8 µM (inactive) | GI50 [14]: 20 µM (inactive) | GI50 [15]: 39.1 µM (inactive) | GI50 [16]: 26.7 µM (inactive) | GI50 [17]: 30.3 µM (inactive) | GI50 [54]: 12.1 µM (inactive) | GI50 [18]: 29.4 µM (inactive) | GI50 [19]: 31.9 µM (inactive) | GI50 [20]: 14.4 µM (inactive) | GI50 [21]: 16 µM (inactive) | GI50 [22]: 16.6 µM (inactive) | GI50 [23]: 20.1 µM (inactive) | GI50 [24]: 34.6 µM (inactive) | GI50 [25]: 26.9 µM (inactive) | GI50 [26]: 14 µM (inactive) | GI50 [27]: 9.79 µM (inactive) | GI50 [55]: 4.69 µM (inactive) | GI50 [28]: 34.1 µM (inactive) | GI50 [29]: 25.5 µM (inactive) | GI50 [30]: 33.5 µM (inactive) | GI50 [31]: 21.2 µM (inactive) | GI50 [32]: 24.6 µM (inactive) | GI50 [33]: 21 µM (inactive) | GI50 [34]: 14.4 µM (inactive) | GI50 [35]: 24.3 µM (inactive) | GI50 [36]: 29 µM (inactive) | GI50 [37]: 35.7 µM (inactive) | GI50 [38]: 46.3 µM (inactive) | GI50 [56]: 22.8 µM (inactive) | GI50 [39]: 40.8 µM (inactive) | GI50 [40]: 31.2 µM (inactive) | GI50 [41]: 46.9 µM (inactive) | GI50 [42]: 23.8 µM (inactive) | GI50 [43]: 50.5 µM (inactive) | GI50 [57]: 13.8 µM (inactive) | GI50 [44]: 42.6 µM (inactive) | GI50 [45]: 39.9 µM (inactive) | GI50 [46]: 17.5 µM (inactive) | GI50 [47]: 26.9 µM (inactive) | GI50 [48]: 16.6 µM (inactive) | GI50 [49]: 18.1 µM (inactive) | GI50 [50]: 28.4 µM (inactive)
